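The compound was tested at five concentrations on cells cultured in 96-well plates, with a 48-hour exposure period. GI50: concentration for 50% inhibition of growth.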 Active and inactive are the calls of the source. Rule as the data show it: active = GI50 up to about 1.1 µM and inactive = higher. Starred links: 1 amine or outer side, 2 acyl side, 3 side chain; linkers in the order of their positions; H or OH if unused. Positions of bridges follow the written chain, without caps; N, C: chain ends. Non-standard residues stand in square brackets, D forms with d. Residues, ends and D or L forms follow the SMILES beside them. *: point of attachment. X40 = CC[C@H](C)[C@@H](N[*:1])[C@@H](O)CC(=O)[*:2]; NMeY = CN[C@@H](Cc1ccc(O)cc1)C(=O)O; dNMeL = CN[C@H](CC(C)C)C(=O)O; Hiv = CC(C)[C@H](O)C(=O)O; Pyruvoyl = CC(=O)C(=O)*
How the values were obtained:
Test in all cases: NCI anticancer screen, dose series, 48 h
MOLT-4 = system: MOLT-4
UACC-257 = system: UACC-257
ACHN = system: ACHN
NCI-H23 = system: NCI-H23
SW-620 = system: SW-620
786-0 = system: 786-0
RXF 393 = system: RXF 393
KM-20L2 = system: KM-20L2
SF-295 = system: SF-295
SNB-75 = system: SNB-75
A498 = system: A498
NCI-H522 = system: NCI-H522
M14 = system: M14
SK-MEL-2 = system: SK-MEL-2
SF-268 = system: SF-268
HCC 2998 = system: HCC 2998
BT-549 = system: BT-549
T47D = system: T47D
DU-145 = system: DU-145
MDA-MB-435 = system: MDA-MB-435

C[C@@H]1OC(=O)N2CCCC(=C3SCCCS3)C12 (some centres not stated)
GI50 (MOLT-4): 33.3 µM (inactive)
GI50 (UACC-257): 37.1 µM (inactive)
GI50 (ACHN): 93.5 µM (inactive)
GI50 (NCI-H23): 64 µM (inactive)
GI50 (SW-620): > 100 µM (inactive)
GI50 (786-0): > 100 µM (inactive)
GI50 (RXF 393): 68.4 µM (inactive)
GI50 (KM-20L2): 93.8 µM (inactive)
GI50 (SF-295): 90.2 µM (inactive)
GI50 (SNB-75): 51.2 µM (inactive)
GI50 (A498): > 100 µM (inactive)
GI50 (NCI-H522): 59.2 µM (inactive)
GI50 (M14): 48.9 µM (inactive)
GI50 (SK-MEL-2): > 100 µM (inactive)
GI50 (SF-268): 61.9 µM (inactive)

Cc1cccc(C)c1CO
GI50 (MOLT-4): > 100 µM (inactive)
GI50 (UACC-257): > 100 µM (inactive)
GI50 (ACHN): > 100 µM (inactive)
GI50 (NCI-H23): > 100 µM (inactive)
GI50 (SW-620): > 100 µM (inactive)
GI50 (786-0): > 100 µM (inactive)
GI50 (RXF 393): > 100 µM (inactive)
GI50 (KM-20L2): > 100 µM (inactive)
GI50 (SF-295): > 100 µM (inactive)
GI50 (SNB-75): > 100 µM (inactive)
GI50 (HCC 2998): > 100 µM (inactive)
GI50 (NCI-H522): > 100 µM (inactive)
GI50 (M14): > 100 µM (inactive)
GI50 (SK-MEL-2): > 100 µM (inactive)
GI50 (SF-268): > 100 µM (inactive)

OCc1c[te]c(-c2ccccc2)c1
GI50 (MOLT-4): 38.8 µM (inactive)
GI50 (UACC-257): 57.5 µM (inactive)
GI50 (ACHN): 53.3 µM (inactive)
GI50 (NCI-H23): 22.1 µM (inactive)
GI50 (SW-620): > 100 µM (inactive)
GI50 (786-0): > 100 µM (inactive)
GI50 (RXF 393): 42.2 µM (inactive)
GI50 (KM-20L2): > 100 µM (inactive)
GI50 (SF-295): 2.25 µM (inactive)
GI50 (SNB-75): 44.5 µM (inactive)
GI50 (HCC 2998): > 100 µM (inactive)
GI50 (A498): 92.3 µM (inactive)
GI50 (M14): 84.7 µM (inactive)
GI50 (SK-MEL-2): 25.8 µM (inactive)

CN(C)c1ccc(-c2cc(O)c3cc4c(cc3n2)OCO4)cc1
GI50 (MOLT-4): > 100 µM (inactive)
GI50 (UACC-257): > 100 µM (inactive)
GI50 (ACHN): > 100 µM (inactive)
GI50 (NCI-H23): > 100 µM (inactive)
GI50 (SW-620): > 100 µM (inactive)
GI50 (786-0): > 100 µM (inactive)
GI50 (RXF 393): > 100 µM (inactive)
GI50 (KM-20L2): > 100 µM (inactive)
GI50 (SF-295): > 100 µM (inactive)
GI50 (SNB-75): 4.33 µM (inactive)
GI50 (HCC 2998): > 100 µM (inactive)
GI50 (A498): > 100 µM (inactive)
GI50 (M14): > 100 µM (inactive)
GI50 (SK-MEL-2): > 100 µM (inactive)
GI50 (SF-268): > 100 µM (inactive)

CC[C@H](C)[C@H]1NC(=O)[C@@H](NC(=O)[C@@H](CC(C)C)N(C)C(=O)[C@@H]2CCCN2C(=O)C(C)=O)[C@@H](C)OC(=O)[C@H](Cc2ccc(OC)cc2)N(C)C(=O)[C@@H]2CCCN2C(=O)[C@H](CC(C)C)NC(=O)[C@H](C(C)C)OC(=O)C[C@@H]1O (Pyruvoyl-P[dNMeL]T[X40][Hiv]LP[NMeY](Me); ester 3-C)
GI50 (BT-549): 0.00617 µM (active)
GI50 (MOLT-4): 0.00423 µM (active)
GI50 (T47D): 0.00404 µM (active)
GI50 (UACC-257): 0.00594 µM (active)
GI50 (ACHN): 0.0203 µM (active)
GI50 (NCI-H23): 0.00455 µM (active)
GI50 (SW-620): 0.00505 µM (active)
GI50 (786-0): 0.00361 µM (active)
GI50 (RXF 393): 0.00383 µM (active)
GI50 (SF-295): 0.00718 µM (active)
GI50 (SNB-75): 0.00482 µM (active)
GI50 (HCC 2998): 0.00261 µM (active)
GI50 (A498): 0.00538 µM (active)
GI50 (DU-145): 0.00372 µM (active)
GI50 (MDA-MB-435): 0.00485 µM (active)
GI50 (NCI-H522): 0.00547 µM (active)
GI50 (M14): 0.00269 µM (active)
GI50 (SK-MEL-2): 0.0047 µM (active)
GI50 (SF-268): 0.00569 µM (active)

C=CCC1(CC)C(=O)NC(=O)NC1=O [ETALLOBARBITAL]
GI50 (MOLT-4): > 100 µM (inactive)
GI50 (UACC-257): > 100 µM (inactive)
GI50 (ACHN): > 100 µM (inactive)
GI50 (NCI-H23): > 100 µM (inactive)
GI50 (SW-620): > 100 µM (inactive)
GI50 (786-0): > 100 µM (inactive)
GI50 (RXF 393): > 100 µM (inactive)
GI50 (KM-20L2): > 100 µM (inactive)
GI50 (SF-295): > 10 µM (inactive)
GI50 (SNB-75): > 100 µM (inactive)
GI50 (HCC 2998): > 100 µM (inactive)
GI50 (NCI-H522): > 100 µM (inactive)
GI50 (M14): > 100 µM (inactive)
GI50 (SF-268): > 100 µM (inactive)

Source: ChEMBL document CHEMBL1201862, “PubChem BioAssay data set” (2004)
